Measurements reported in patent US12577238B2, “Compositions and methods for modulating inflammatory and degenerative disorder” (University of Southern California, priority 2018, dated 2026).
“Also recorded” adds a separate entry of the source.

Legend:
gp130-IL-6R complexes = biological target: T1, gp130-IL-6R complexes (Homo sapiens, UniProt P40189); assay: Receptor competition, gp130-Flag pull-down, IL-6R; type: cell-based; settings: in the presence of IL-6
T1 construct: Flag; expressed in transfected cells; host or cells: adult human articular chondrocytes
T1 sequence (P40189 23-918): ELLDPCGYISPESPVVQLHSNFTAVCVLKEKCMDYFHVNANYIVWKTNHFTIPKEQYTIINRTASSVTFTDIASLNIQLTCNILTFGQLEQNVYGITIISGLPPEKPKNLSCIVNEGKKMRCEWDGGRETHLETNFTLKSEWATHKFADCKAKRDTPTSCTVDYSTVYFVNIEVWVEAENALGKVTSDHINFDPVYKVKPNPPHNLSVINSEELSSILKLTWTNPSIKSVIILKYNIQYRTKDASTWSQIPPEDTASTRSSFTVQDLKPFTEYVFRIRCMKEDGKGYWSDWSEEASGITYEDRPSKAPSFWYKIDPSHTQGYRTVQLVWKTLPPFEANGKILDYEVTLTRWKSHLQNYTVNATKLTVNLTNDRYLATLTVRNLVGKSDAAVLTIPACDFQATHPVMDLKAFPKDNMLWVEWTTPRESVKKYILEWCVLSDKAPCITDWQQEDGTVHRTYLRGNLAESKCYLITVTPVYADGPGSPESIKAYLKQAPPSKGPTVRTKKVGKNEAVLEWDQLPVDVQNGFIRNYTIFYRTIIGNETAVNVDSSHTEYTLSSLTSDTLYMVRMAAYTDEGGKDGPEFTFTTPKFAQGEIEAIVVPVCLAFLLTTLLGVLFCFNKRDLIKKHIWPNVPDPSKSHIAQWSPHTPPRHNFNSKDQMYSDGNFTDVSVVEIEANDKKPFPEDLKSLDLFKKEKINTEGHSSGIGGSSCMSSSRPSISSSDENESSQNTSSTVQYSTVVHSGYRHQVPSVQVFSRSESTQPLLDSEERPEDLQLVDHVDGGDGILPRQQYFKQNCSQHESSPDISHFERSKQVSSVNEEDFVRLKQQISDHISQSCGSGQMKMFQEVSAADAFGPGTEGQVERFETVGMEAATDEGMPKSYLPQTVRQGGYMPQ
Procedure: Adult human chondrocytes transfected with gp130-Flag were incubated with various concentrations of RCGD 423 in the presence of IL-6 or OSM; levels of immoprecipitated IL-6R or OSMR were used to calculate the dissociation constant (Kd).
This property would be of great interest due to the pro-inflammatory and pro-catabolic effects of these cytokines in the joint space. […] To assess whether RCGD 423 could directly compete for gp130 occupancy, human adult articular chondrocytes were transfected with tagged gp130 and then pulled down associated proteins±RCGD 423 and/or IL-6.

gp130 [1] = biological target: T2, gp130 (Rattus norvegicus, UniProt P40190); assay: Injection into rat knees, pSTAT3 and MYC levels; type: in vivo; settings: injection into rat joints
T2 construct: from tissue; host or cells: rat knee joint in vivo (Sprague-Dawley wild-type in the CFA model)
T2 sequence (P40190 23-918): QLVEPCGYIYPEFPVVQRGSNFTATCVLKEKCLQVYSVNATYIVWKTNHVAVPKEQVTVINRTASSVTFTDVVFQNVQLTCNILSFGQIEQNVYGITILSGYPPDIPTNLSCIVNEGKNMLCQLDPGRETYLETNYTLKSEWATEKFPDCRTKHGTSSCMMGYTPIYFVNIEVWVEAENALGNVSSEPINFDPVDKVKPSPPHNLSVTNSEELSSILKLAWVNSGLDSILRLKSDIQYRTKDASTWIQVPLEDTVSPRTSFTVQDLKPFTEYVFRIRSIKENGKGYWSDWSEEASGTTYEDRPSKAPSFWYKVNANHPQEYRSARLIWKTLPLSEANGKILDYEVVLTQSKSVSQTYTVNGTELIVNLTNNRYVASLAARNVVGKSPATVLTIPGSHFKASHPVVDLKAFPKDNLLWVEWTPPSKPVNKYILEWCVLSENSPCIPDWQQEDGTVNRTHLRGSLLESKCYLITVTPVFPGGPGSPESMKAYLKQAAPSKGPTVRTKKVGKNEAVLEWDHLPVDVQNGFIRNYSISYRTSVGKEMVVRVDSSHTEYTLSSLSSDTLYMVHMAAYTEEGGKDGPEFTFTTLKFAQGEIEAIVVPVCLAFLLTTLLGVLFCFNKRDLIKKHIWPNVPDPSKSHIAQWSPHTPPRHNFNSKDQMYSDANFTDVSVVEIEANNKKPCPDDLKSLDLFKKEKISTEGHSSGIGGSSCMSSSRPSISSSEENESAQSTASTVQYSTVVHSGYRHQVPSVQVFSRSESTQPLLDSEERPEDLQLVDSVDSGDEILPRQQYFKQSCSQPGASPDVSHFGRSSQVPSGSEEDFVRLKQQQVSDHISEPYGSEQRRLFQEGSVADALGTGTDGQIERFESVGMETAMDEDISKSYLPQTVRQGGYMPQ
Procedure: (§1) Based on this, it was hypothesized that RCGD 423 acts through gp130 by promoting stable homodimers in the absence of ligand. To confirm that RCGD 423 acts through gp130, the gp130 null cell line Ba/F3 cells was used. Ba/F3 cells were transfected with either full-length gp130 or a mutant gp130 lacking domain 2 (ΔD2), which contains the predicted binding site for RCGD 423 (FIG. 7). […] To verify the specificity of RCGD 423 in vivo, the compound was injected into rat knees in the presence of the small molecule gp130 inhibitor SC144 or a blocking antibody specific for domain 2 of gp130. […] The ability of RCGD 423 to act via inducing formation of gp130 homodimers was then examined by expressing tagged versions of gp130 in 293T cells. In this system, only homodimeric complexes can contain both tagged versions of gp130 (FIG. 9).

gp130 [2] = assay: gp130 null Ba/F3 cells transfected with full-length gp130 or ΔD2 mutant; type: cell-based; settings: WT gp130 vs ΔD2 mutant
Procedure: as §1

adult human synoviocytes = assay: ERK and NF-κB downstream of OSM and IL-6 in synoviocytes; type: cell-based
Procedure: (§2) Accordingly, the ability of RCGD 423 to suppress signaling downstream of IL-6 and OSM in synoviocytes and peripheral blood mononuclear cells was assessed (FIG. 14).

adult human PBMCs = assay: ERK and NF-κB downstream of OSM and IL-6 in PBMCs; type: cell-based
Procedure: as §2

[3] = system: Col10a1-RFP reporter in limb bud mesenchymal cells; assay: High throughput screen, Col10a1 reporter in BMP-4 stimulated limb mesenchymal cells; type: cell-based, mouse; settings: ~170,000 compounds screened
Procedure: The gp130 co-receptor LIFR is expressed on a subset of superficial chondrocytes throughout human ontogeny. […] Given the known (and mostly detrimental roles) of IL-6 family cytokines on articular chondrocytes, a high throughput screen was performed to identify small molecules that could potentially modulate gp130 signaling. In adult mice, IL-6/gp130 signaling drives Col10a1 expression and hypertrophy, which has been strongly associated with OA progression; ˜170,000 compounds were thus screened for their ability to prevent increases in Col10-mCherry fluorescence in mouse limb mesenchymal cells stimulated with BMP-4, a strong driver of hypertrophy (FIG. 2).

NF-κB protein = assay: OSM or IL-6 induced NF-κB in human adult articular chondrocytes; type: cell-based; settings: in combination with OSM or IL-6

With `Brc1ccc(Nc2nc(-c3ccccc3)cs2)cc1` [RCGD 423] the “gp130-IL-6R complexes / competition with IL-6R for gp130 occupancy” value (gp130-IL-6R complexes) was “gp130-IL-6R complexes were significantly reduced; also recorded: directly competes with OSMR and IL-6R for gp130 occupancy”, the “pSTAT3 and MYC levels in rat joints” value (gp130 [1]) was “increased pSTAT3 and MYC levels” and the “gp130 signaling in gp130−/− Ba/F3 cells” value (gp130 [2]) was “full-length gp130 is required for the activity of RCGD 423; also recorded: only increase gp130 signaling in the presence of RCGD 423 and WT gp130”. For the same compound, the “increases in ERK and NF-κB levels downstream of OSM and IL-6” value (adult human synoviocytes) was “inhibits increases in ERK and NF-κB levels”, the “increases in ERK and NF-κB levels downstream of OSM and IL-6” value (adult human PBMCs) was “inhibits increases in ERK and NF-κB levels” and the “ability to prevent increases in Col10-mCherry fluorescence (Col10a1 reporter)” value [3] was “primary hit”. The “increases in NF-κB protein / signaling downstream of OSM and IL-6” value (NF-κB protein) was “significantly reduced increases in NF-κB protein; also recorded: reduces signaling downstream of OSM and IL-6”.
